Data set [1] deals with E. coli DH10B pBCSK(−) producing R228Y. The data set is described as follows: MIC by agar dilution, E. coli DH10B pBCSK. The conditions noted are these: Escherichia coli, MHA. The class given is cell-based. (In general: In agar dilution the substance is mixed into plates at graded concentrations.)
In data set [2] the test system is E. coli DH10B pBCSK(−) producing R228M. The data set is described as follows: MIC by agar dilution, E. coli DH10B pBCSK. The conditions noted are these: Escherichia coli, MHA. In kind it is cell-based.
Data set [3] has as its system E. coli DH10B pBCSK(−) producing R228Q. The data set is described as follows: MIC by agar dilution, E. coli DH10B pBCSK. The class given is cell-based. The conditions noted are these: Escherichia coli, MHA.
For data set [4], the system named is E. coli DH10B pBCSK(−) producing VIM-24 (R228L). The data set is described as follows: MIC by agar dilution, E. coli DH10B pBCSK. The conditions noted are these: Escherichia coli, MHA. The class given is cell-based.
For data set [5], the system named is E. coli DH10B pBCSK(−) producing VIM-2 (228R). The data set can be described thus: MIC by agar dilution, E. coli DH10B pBCSK. In kind it is cell-based. The conditions noted are these: Escherichia coli, MHA.
In data set [6] the test system is E. coli DH10B pBCSK(−) producing R228K. The data set is described as follows: MIC by agar dilution, E. coli DH10B pBCSK. The class given is cell-based. As to conditions: Escherichia coli, MHA.
Data set [7] has as its system E. coli DH10B pBCSK(−) producing R228X (other variants). The data set can be described thus: MIC by agar dilution, E. coli DH10B pBCSK. The class given is cell-based. The conditions noted are these: Escherichia coli, R228X: range of MIC values of the other variants; MHA.
The next data set concerns E. coli pBC SK(−). The data set is described as follows: MIC by agar dilution, E. coli DH10B with empty pBC SK. The class given is cell-based. As to conditions: Escherichia coli, MHA.
In data set [8] the test system is E. coli DH10B pBCSK(−) producing R228P. The data set can be described thus: MIC by agar dilution, E. coli DH10B pBCSK. The class given is cell-based. As to conditions: Escherichia coli, MHA.
The target in data set [9] is T1, VIM-24 (Escherichia coli, UniProt Q5U7L7, R205L). In kind it is biochemical, Klebsiella pneumoniae. The conditions noted are these: VIM-24; substrate hydrolysis, 10 mM HEPES pH 7.5, 25 °C.
In another data set the test system is MBLs. The data set can be described thus: Inhibitory activity toward MBLs after prolonged exposure to oxidative conditions. In kind it is biochemical. As to conditions: assays in solution; data not shown.
The target in data set [10] is T1, VIM-24. The data set can be described thus: BTZ inhibition kinetics of nitrocefin hydrolysis by VIM-24. The class given is biochemical, Klebsiella pneumoniae. The conditions noted are these: for Ki: overall dissociation constant from vs, slow binding model.
The next data set addresses VIM-2 (Escherichia coli, UniProt Q5U7L7). The data set is described as follows: BTZ inhibition kinetics of nitrocefin hydrolysis by VIM-2. In kind it is biochemical, P. aeruginosa. As to conditions: for Ki: overall dissociation constant from vs, slow binding model.
Data set [11] deals with CC(=O)OCC1=C(C(=O)O)N2C(=O)[C@@H](NC(=O)Cc3cccs3)[C@H]2SC1. The data set can be described thus: purified protein, by the assay type. The conditions noted are these: other: VIM-2, substrate hydrolysis, 10 mM HEPES pH 7.5, 25 °C.
The test system of data set [12] is C[C@@H](O)[C@H]1C(=O)N2C(C(=O)O)=C(SCCN=CN)C[C@H]12. The data set can be described thus: purified protein, by the assay type. As to conditions: other: VIM-2, substrate hydrolysis, 10 mM HEPES pH 7.5, 25 °C.
For data set [13], the system named is O=C(Cc1cccs1)N[C@@H]1C(=O)N2C(C(=O)O)=C(/C=C/c3ccc([N+](=O)[O-])cc3[N+](=O)[O-])CS[C@H]12. The data set is described as follows: purified protein, by the assay type. The conditions noted are these: other: VIM-2, substrate hydrolysis, 10 mM HEPES pH 7.5, 25 °C.
Setting [14] is: rate constant for formation of E*I.

Usually MIC stands for the lowest concentration that inhibits growth of the organism. A lower MIC goes with inhibition by little substance. As a reminder, the kcat is the number of substrate molecules converted per active site and unit of time at saturation. As usually defined, the Ki is a dissociation constant, usually derived from enzyme kinetics or from competition with a known ligand. The term Km denotes the concentration of substrate that gives half-maximal velocity. As usually defined, the kcat/Km is the turnover number divided by the Michaelis constant.

In brackets after ≈: the same amount, converted by molar mass.

Take `CC1(C)S[C@@H]2[C@H](NC(=O)[C@H](N)c3ccccc3)C(=O)N2[C@H]1C(=O)O` [ampicillin]: the MIC is 1020 µg/mL (≈ 2930 µM) in data set [1]; 1020 µg/mL (≈ 2930 µM) in data set [2]; 1020 µg/mL (≈ 2930 µM) in data set [3]; 512 µg/mL (≈ 1470 µM) in data set [4]; 512 µg/mL (≈ 1470 µM) in data set [5]; 32 µg/mL (≈ 91.6 µM) in data set [6]. The MIC in [7] is 64 to 512 µg/mL (≈ 183 to 1470 µM); in the data set with E. coli pBC SK(−), 4 µg/mL (≈ 11.4 µM); in [8] it was 32 µg/mL (≈ 91.6 µM).
With `O=C(Cc1cccs1)N[C@@H]1C(=O)N2C(C(=O)O)=C(/C=C/c3ccc([N+](=O)[O-])cc3[N+](=O)[O-])CS[C@H]12` [nitrocefin], the turnover number (kcat) at VIM-24 [9] stood at 171 ± 4 s⁻¹.
On to `O=C(O)[C@@H]1CS[C@H]2CS[C@H](CS)N21` [L-CS319], for which the “effect of prolonged exposure to oxidative conditions on inhibitory activity” value with MBLs is given as “abolishes the inhibitory activity”. Moreover, the Ki on VIM-24 [10] amounted to 0.12 ± 0.02 µM; at VIM-2, 0.04 ± 0.01 µM.
Regarding `O=C(O)[C@H]1CS[C@@H]2CS[C@@H](CS)N12` [D-CS319], the Ki was 0.64 ± 0.01 µM at VIM-24 [10] and 0.18 ± 0.02 µM at VIM-2. In addition, the “k−2” value at VIM-24 [10] (rate constant for breakdown of E*I) is “(0.004 ± 1) × 10^−3 s^−1”. In addition, the k2 entry on VIM-24 [10] (setting [14]) is reported as “(0.07 ± 4) × 10^−3 s^−1”; at VIM-2 (setting [14]) it was “(0.01 ± 1) × 10^−3 s^−1”.
For the compound VIM-2 (Escherichia coli), in data set [11], the Michaelis constant (Km) worked out at 17 ± 2 µM, the kcat is 168 ± 8 s⁻¹ and the kcat/Km was determined as 9.8e+06 M⁻¹ s⁻¹. For the same compound, in data set [12], the Km worked out at 12 ± 1 µM, the kcat was determined as 45 ± 1 s⁻¹ and the kcat/Km came to 3.6e+06 M⁻¹ s⁻¹. In [13], the Km turned out to be 13 ± 1 µM, the kcat is 430 ± 20 s⁻¹ and the kcat/Km worked out at 3.3e+07 M⁻¹ s⁻¹.
Take `C[C@H]1[C@H](NC(=O)/C(=N\OC(C)(C)C(=O)O)c2csc(N)n2)C(=O)N1S(=O)(=O)O` [aztreonam]: the MIC in data set [1], in data set [2], in data set [3], in [4], in [5] and in data set [6] was no more than 0.125 µg/mL in each case. Also, the minimum inhibitory concentration (MIC) (in data set [7]; in the data set with E. coli pBC SK(−); in data set [8]) was no more than 0.125 µg/mL each time.

The values above are taken from paper PMC4700511 (Biochemistry, 2015).
